Test results taken from PubChem BioAssay AID2060611 (Molecular Pharmacology Branch, DTP, NCI, 2025).

System: 628569-122-R-J1-PDC complex spheroid viability
Assay: Anticancer human tumor 628569-122-R-J1-PDC patient-derived head and neck squamous carcinoma cell line growth inhibition [CLK]
Conditions: for IC50: curve of first compound; for viability, T/C: stronger effect = lower value
Summary of the method: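 Patient-derived tumor cells grown as complex spheroids with HUVEC endothelial cells and mesenchymal stem cells, treated with drug combinations. Concentrations descend in half-log steps from near clinical Cmax, or from 10 microM if Cmax unknown.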

[1] = second compound 0.0316 µM, first compound 0.00316 µM
[2] = second compound 0.0316 µM, first compound 0.01 µM
[3] = second compound 0.0316 µM, first compound 0.0316 µM
[4] = second compound 0.0316 µM, first compound 0.1 µM
[5] = second compound 0.0316 µM, first compound 0.316 µM
[6] = second compound 0.0316 µM, first compound 1 µM
[7] = second compound 0.1 µM, first compound 0.00316 µM
[8] = second compound 0.1 µM, first compound 0.01 µM
[9] = second compound 0.1 µM, first compound 0.0316 µM
[10] = second compound 0.1 µM, first compound 0.1 µM
[11] = second compound 0.1 µM, first compound 0.316 µM
[12] = second compound 0.1 µM, first compound 1 µM
[13] = second compound 0.316 µM, first compound 0.00316 µM
[14] = second compound 0.316 µM, first compound 0.01 µM
[15] = second compound 0.316 µM, first compound 0.0316 µM
[16] = second compound 0.316 µM, first compound 0.1 µM
[17] = second compound 0.316 µM, first compound 0.316 µM
[18] = second compound 0.316 µM, first compound 1 µM
[19] = second compound 1 µM, first compound 0.00316 µM
[20] = second compound 1 µM, first compound 0.01 µM
[21] = second compound 1 µM, first compound 0.0316 µM
[22] = second compound 1 µM, first compound 0.1 µM
[23] = second compound 1 µM, first compound 0.316 µM
[24] = second compound 1 µM, first compound 1 µM
[25] = second compound 3.16 µM, first compound 0.00316 µM
[26] = second compound 3.16 µM, first compound 0.01 µM
[27] = second compound 3.16 µM, first compound 0.0316 µM
[28] = second compound 3.16 µM, first compound 0.1 µM
[29] = second compound 3.16 µM, first compound 0.316 µM
[30] = second compound 3.16 µM, first compound 1 µM
[31] = second compound 10 µM, first compound 0.00316 µM
[32] = second compound 10 µM, first compound 0.01 µM
[33] = second compound 10 µM, first compound 0.0316 µM
[34] = second compound 10 µM, first compound 0.1 µM
[35] = second compound 10 µM, first compound 0.316 µM
[36] = second compound 10 µM, first compound 1 µM
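Also: spheroids exposed to agents for seven days before readout.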
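For viability, T/C in this document: 100% = DMSO vehicle control viability.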

SMILES: CCN1CCN(Cc2ccc(Nc3ncc(F)c(-c4cc(F)c5nc(C)n(C(C)C)c5c4)n3)nc2)CC1 + CNC(=O)c1ccc(Nc2nc(OC3CCCC3)c3c(-c4ccc5nc(C)oc5c4)c[nH]c3n2)c(OC)c1
- IC50 (second compound 0.0316 µM): > 1 µM
- IC50 (second compound 0.1 µM): > 1 µM
- IC50 (second compound 0.316 µM): > 1 µM
- IC50 (second compound 1 µM): < 0.00316 µM
- IC50 (second compound 3.16 µM): < 0.00316 µM
- IC50 (second compound 10 µM): < 0.00316 µM
- viability, T/C [1]: 81.5%
- viability, T/C [2]: 94.4%
- viability, T/C [3]: 76.3%
- viability, T/C [4]: 67.7%
- viability, T/C [5]: 98.7%
- viability, T/C [6]: 155%
- viability, T/C [7]: 58.5%
- viability, T/C [8]: 64%
- viability, T/C [9]: 56.4%
- viability, T/C [10]: 61.7%
- viability, T/C [11]: 108%
- viability, T/C [12]: 137%
- viability, T/C [13]: 57.6%
- viability, T/C [14]: 55.6%
- viability, T/C [15]: 51.7%
- viability, T/C [16]: 61%
- viability, T/C [17]: 95.3%
- viability, T/C [18]: 135%
- viability, T/C [19]: 45.5%
- viability, T/C [20]: 49.2%
- viability, T/C [21]: 50.7%
- viability, T/C [22]: 63%
- viability, T/C [23]: 92.6%
- viability, T/C [24]: 122%
- viability, T/C [25]: 48.2%
- viability, T/C [26]: 55.7%
- viability, T/C [27]: 57.1%
- viability, T/C [28]: 49.6%
- viability, T/C [29]: 82.9%
- viability, T/C [30]: 97.9%
- viability, T/C [31]: 46.1%
- viability, T/C [32]: 38.8%
- viability, T/C [33]: 46.1%
- viability, T/C [34]: 49.3%
- viability, T/C [35]: 76.4%
- viability, T/C [36]: 99.2%

SMILES: CCc1c2c(nc3ccc(O)cc13)-c1cc3c(c(=O)n1C2)COC(=O)[C@]3(O)CC + CN1CCN(c2cc(C(=O)Nc3cc4cc(-c5cnn(C)c5)ccc4cn3)ccn2)CC1
- IC50 (second compound 0.0316 µM): 0.0902 µM
- IC50 (second compound 0.1 µM): 0.107 µM
- IC50 (second compound 0.316 µM): < 0.00316 µM
- IC50 (second compound 1 µM): < 0.00316 µM
- IC50 (second compound 3.16 µM): < 0.00316 µM
- IC50 (second compound 10 µM): < 0.00316 µM
- viability, T/C [1]: 61.5%
- viability, T/C [2]: 53.1%
- viability, T/C [3]: 50.2%
- viability, T/C [4]: 52.2%
- viability, T/C [5]: 35.8%
- viability, T/C [6]: 9.26%
- viability, T/C [7]: 50.9%
- viability, T/C [8]: 49.9%
- viability, T/C [9]: 47.9%
- viability, T/C [10]: 58.3%
- viability, T/C [11]: 23.7%
- viability, T/C [12]: 5.24%
- viability, T/C [13]: 40.4%
- viability, T/C [14]: 36.4%
- viability, T/C [15]: 15%
- viability, T/C [16]: 9.88%
- viability, T/C [17]: 4.62%
- viability, T/C [18]: 6.11%
- viability, T/C [19]: 5.48%
- viability, T/C [20]: 4.65%
- viability, T/C [21]: 8.79%
- viability, T/C [22]: 7.58%
- viability, T/C [23]: 5.31%
- viability, T/C [24]: 2.58%
- viability, T/C [25]: 9.55%
- viability, T/C [26]: 6.32%
- viability, T/C [27]: 5.67%
- viability, T/C [28]: 8.5%
- viability, T/C [29]: 4.73%
- viability, T/C [30]: 2.6%
- viability, T/C [31]: 1.57%
- viability, T/C [32]: 2.38%
- viability, T/C [33]: 4%
- viability, T/C [34]: 4.91%
- viability, T/C [35]: 3.1%
- viability, T/C [36]: 0.67%
